{"source": "patent US20160168140A1", "about": "“HETEROCYCLIC COMPOUNDS AS ANTIBIOTIC POTENTIATORS” (priority 2014, published 2016)"}
{"test_system": "Acinetobacter baumannii (Ab23)", "assay": "MIC shift assay of antibiotics (broth microdilution)", "type": "cell-based", "conditions": "compound concentration 2 μM; fold shift of colistin MIC; nc = no changeover or no shift", "experimental": "(§1) Minimum inhibitory concentration (MIC) shift assays were performed to determine if the test compounds could alter the MIC of existing antibacterial drugs (e.g., ciprofloxacin and colistin) for E. coli, Acinetobacter baumannii, Klebsiella pneumoniae, Pseudomonas aeruginosa, and Enterobacter cloacae. The MIC shift assay is based on the standard broth microdilution MIC determination protocol of Wiegand et al, Nat Protoc. 3(2):163-75 (2008), with slight modifications that allow for the screening of up to seven test compounds in a single plate.\n(§2) On the day before an assay, bacteria were grown overnight in cation-adjusted Mueller Hinton broth (CAMHB; Teknova, Hollister, Calif.) at 37° C. in an orbital shaker and sub-cultured at a 1:200 dilution the following morning. The cells were grown to OD600=0.5 to 0.8 and then diluted to OD600=0.01. From a serial dilution of each antibiotic at (50 μL of 2× concentrated stock solutions) several concentrations were added to the wells of a sterile, transparent round-bottom 96-well plate (Phenix Research Products, Candler, N.C.), and diluted cells (50 μL) were added to the plates for a starting OD600 of 0.005. […] A row of wells lacking test compound but containing the antibiotic was used to determine the MIC of that antibiotic alone. A column of wells lacking both antibiotic and test compound served as a growth control, and an additional column containing only CAMHB was included as a sterile blank control.\n(§3) The plates were incubated for 18 to 20 h at 37° C. in an orbital shaker, and the cell density (OD600) was determined the following day in a microplate reader (PolarStar Optima, BMG Labtech). The MIC shift was determined by comparing the MIC of the antibiotic alone to the MIC of the antibiotic plus test compound."}
{"smiles": "FC(F)(F)c1cc(-c2c[nH]c3cc(Cl)c(Cl)cc23)ccc1Cl", "note": "[compound 436]", "colistin MIC shift, Ab23 at (compd concentration)": "4x"}
{"smiles": "CC(C)(c1c[nH]c2cc(Cl)c(Cl)cc12)c1c[nH]c2cc(Cl)c(Cl)cc12", "note": "[compound 440]", "colistin MIC shift, Ab23 at (compd concentration)": "≧16x"}
{"smiles": "FC(F)(F)c1ccc2c(-c3ccc(Cl)c(Cl)c3)n[nH]c2c1", "note": "[compound 441]", "colistin MIC shift, Ab23 at (compd concentration)": "≧16x"}
{"test_system": "Acinetobacter baumannii (Ab23)", "assay": "MIC shift assay of antibiotics (broth microdilution)", "type": "cell-based", "conditions": "compound concentration 4 μM; fold shift of colistin MIC; nc = no changeover or no shift", "experimental": "as §1, §2, §3"}
{"smiles": "FC(F)(F)c1cccc(-c2ccc3[nH]cc(-c4ccc(Cl)c(Cl)c4)c3c2)c1", "note": "[compound 438]", "colistin MIC shift, Ab23 at (compd concentration)": "2x"}
{"smiles": "CCN(CC)CCCC(C)Nc1nc(-c2ccc3cc(Cl)c(Cl)cc3c2)nc2c(C)cccc12", "note": "(stereo not shown) [compound 443]", "colistin MIC shift, Ab23 at (compd concentration)": "16x"}
{"smiles": "Cc1cccc2c(NCCCN(C)C)nc(-c3ccc4cc(Cl)c(Cl)cc4c3)nc12", "note": "[compound 444]", "colistin MIC shift, Ab23 at (compd concentration)": "16x"}
{"smiles": "Cc1cccc2c(NCCCN(C)C)nc(-c3cc(Br)c4ccccc4c3)nc12", "note": "[compound 446]", "colistin MIC shift, Ab23 at (compd concentration)": "8-16x"}
{"smiles": "CCN(CC)CCCC(C)Nc1nc(-c2cc(Cc3ccccc3)c3ccccc3c2)nc2c(C)cccc12", "note": "(stereo not shown) [compound 447]", "colistin MIC shift, Ab23 at (compd concentration)": "4x"}
{"smiles": "Cc1cccc2c(NCCCN3CCNCC3)nc(-c3cc(Br)cc(C(F)(F)F)c3)nc12", "note": "[compound 462]", "colistin MIC shift, Ab23 at (compd concentration)": "64x"}
{"smiles": "CCN(CC)CCCC(C)Nc1nc(-c2cccc(-c3cccc(C(F)(F)F)c3)c2)nc2c(C)cccc12", "note": "(stereo not shown) [compound 465]", "colistin MIC shift, Ab23 at (compd concentration)": "8-16x"}
{"smiles": "Cc1cccc2c(NCCCN(C)C)nc(-c3cccc(-c4cccc(C(F)(F)F)c4)c3)nc12", "note": "[compound 466]", "colistin MIC shift, Ab23 at (compd concentration)": "8-16x"}
{"smiles": "COc1ccc2c(NCCCN(C)C)nc(/C=C/c3ccc(Cl)c(Cl)c3)nc2c1C", "note": "[compound 467, (E)-N^1-(2-(3,4-dichlorostyryl)-7-methoxy-8-methylquinazolin-4-yl)-N^3,N^3-dimethylpropane-1,3-diamine]", "colistin MIC shift, Ab23 at (compd concentration)": "16x"}
{"smiles": "Cc1cccc2c(NCCCN(C)C)nc(-c3cccc(-c4ccc(Cl)c(Cl)c4)c3)nc12", "note": "[compound 468]", "colistin MIC shift, Ab23 at (compd concentration)": "16-32x"}
{"smiles": "CCN(CC)CCCC(C)Nc1nc(-c2cccc(-c3cc(Cl)cc(Cl)c3)c2)nc2c(C)cccc12", "note": "(stereo not shown) [compound 469]", "colistin MIC shift, Ab23 at (compd concentration)": "16x"}
{"smiles": "Cc1cccc2c(NCCCN(C)C)nc(-c3cccc(-c4cc(Cl)cc(Cl)c4)c3)nc12", "note": "[compound 470]", "colistin MIC shift, Ab23 at (compd concentration)": "2x"}
{"smiles": "CCN(CC)CCCC(C)Nc1nc(-c2cccc(-c3ccc(C(F)(F)F)cc3F)c2)nc2c(C)cccc12", "note": "(stereo not shown) [compound 471]", "colistin MIC shift, Ab23 at (compd concentration)": "8x"}
{"smiles": "Cc1cccc2c(NCCCN(C)C)nc(-c3cccc(-c4ccc(C(F)(F)F)cc4F)c3)nc12", "note": "[compound 472]", "colistin MIC shift, Ab23 at (compd concentration)": "16x"}
{"smiles": "CCN(CC)CCCC(C)Nc1nc(-c2cccc(-c3cc(C(F)(F)F)ccc3F)c2)nc2c(C)cccc12", "note": "(stereo not shown) [compound 473]", "colistin MIC shift, Ab23 at (compd concentration)": "16x"}
{"smiles": "Cc1cccc2c(NCCCN(C)C)nc(-c3cccc(-c4cc(C(F)(F)F)ccc4F)c3)nc12", "note": "[compound 474]", "colistin MIC shift, Ab23 at (compd concentration)": "32x"}
{"smiles": "CCN(CC)CCCC(C)Nc1nc(-c2cccc(-c3cc(F)cc(C(F)(F)F)c3)c2)nc2c(C)cccc12", "note": "(stereo not shown) [compound 475]", "colistin MIC shift, Ab23 at (compd concentration)": "4-8x"}
{"smiles": "CCN(CC)CCCC(C)Nc1nc(-c2cccc(-c3ccc(C(F)(F)F)c(F)c3)c2)nc2c(C)cccc12", "note": "(stereo not shown) [compound 476]", "colistin MIC shift, Ab23 at (compd concentration)": "16x"}
{"smiles": "CNCCCNc1nc(-c2cccc(-c3cccc(C(F)(F)F)c3)c2)nc2c(C)cccc12", "note": "[compound 478]", "colistin MIC shift, Ab23 at (compd concentration)": "4x"}
{"smiles": "CCN(CC)CCCC(C)Nc1nc(-c2cccc(-c3ccccc3)c2)nc2cc(C(F)(F)F)ccc12", "note": "(stereo not shown) [compound 479]", "colistin MIC shift, Ab23 at (compd concentration)": "8x"}
{"smiles": "CN(C)CCCNc1nc(-c2cccc(-c3ccccc3)c2)nc2cc(C(F)(F)F)ccc12", "note": "[compound 480]", "colistin MIC shift, Ab23 at (compd concentration)": "4x"}
{"smiles": "CCN(CC)CCCC(C)Nc1nc(-c2cccc(-c3cc(C(F)(F)F)ccc3F)c2)nc2cc(C(F)(F)F)ccc12", "note": "(stereo not shown) [compound 481]", "colistin MIC shift, Ab23 at (compd concentration)": "8x"}
{"smiles": "CN(C)CCCNc1nc(-c2cccc(-c3cc(C(F)(F)F)ccc3F)c2)nc2cc(C(F)(F)F)ccc12", "note": "[compound 482]", "colistin MIC shift, Ab23 at (compd concentration)": "32x"}
{"smiles": "CCN(CC)CCCC(C)Nc1nc(-c2cccc(-c3cccc(Cl)c3Cl)c2)nc2c(C)cccc12", "note": "(stereo not shown) [compound 483]", "colistin MIC shift, Ab23 at (compd concentration)": "16x"}
{"smiles": "Cc1cccc2c(NCCCN(C)C)nc(-c3cccc(-c4cccc(Cl)c4Cl)c3)nc12", "note": "[compound 484]", "colistin MIC shift, Ab23 at (compd concentration)": "16x"}
{"smiles": "CN(C)CCCNc1nc(-c2cccc(-c3ccccc3)c2)nc2c(Cl)cccc12", "note": "[compound 486]", "colistin MIC shift, Ab23 at (compd concentration)": "4x"}
{"smiles": "CN(C)CCCNc1nc(-c2cccc(-c3ccc(Cl)c(Cl)c3)c2)nc2c(Cl)cccc12", "note": "[compound 488]", "colistin MIC shift, Ab23 at (compd concentration)": "32x"}
{"smiles": "CN(C)CCCNc1nc(-c2cccc(-c3ccc(C(F)(F)F)c(F)c3)c2)nc2c(Cl)cccc12", "note": "[compound 489]", "colistin MIC shift, Ab23 at (compd concentration)": "16x"}
{"smiles": "CN(C)CCCNc1nc(-c2cccc(-c3cccc(Cl)c3Cl)c2)nc2c(Cl)cccc12", "note": "[compound 490]", "colistin MIC shift, Ab23 at (compd concentration)": "16x"}
{"smiles": "CN(C)CCCNc1nc(-c2cccc(-c3cc(F)cc(C(F)(F)F)c3)c2)nc2c(Cl)cccc12", "note": "[compound 491]", "colistin MIC shift, Ab23 at (compd concentration)": "32x"}
{"smiles": "CCN(CC)CCCC(C)Nc1nc(-c2cc(-c3cccc(C(F)(F)F)c3)cc(C(F)(F)F)c2)nc2c(C)cccc12", "note": "(stereo not shown) [compound 493]", "colistin MIC shift, Ab23 at (compd concentration)": "16x"}
{"smiles": "Cc1cccc2c(NCCCN(C)C)nc(-c3cc(-c4cccc(C(F)(F)F)c4)cc(C(F)(F)F)c3)nc12", "note": "[compound 494]", "colistin MIC shift, Ab23 at (compd concentration)": "16x"}
{"smiles": "CCN(CC)CCCC(C)Nc1nc(-c2cc(-c3ccc(C(F)(F)F)cc3)cc(C(F)(F)F)c2)nc2c(C)cccc12", "note": "(stereo not shown) [compound 495]", "colistin MIC shift, Ab23 at (compd concentration)": "16x"}
{"smiles": "Cc1cccc2c(NCCCN(C)C)nc(-c3cc(-c4ccc(C(F)(F)F)cc4)cc(C(F)(F)F)c3)nc12", "note": "[compound 496]", "colistin MIC shift, Ab23 at (compd concentration)": "16x"}
{"test_system": "Acinetobacter baumannii (Ab23)", "assay": "MIC shift assay of antibiotics (broth microdilution)", "type": "cell-based", "conditions": "compound concentration 8 μM; fold shift of colistin MIC; nc = no changeover or no shift", "experimental": "as §1, §2, §3", "units": {"colistin MIC shift, Ab23 at (compd concentration)": "x"}}
{"smiles": "CCN(CC)CCCC(C)Nc1nc(-c2cc(Br)c3ccccc3c2)nc2c(C)cccc12", "note": "(stereo not shown) [compound 445]", "colistin MIC shift, Ab23 at (compd concentration)": 16}
{"smiles": "Cc1cccc2c(NCCCN(C)C)nc(-c3cccc(C(F)(F)F)c3)nc12", "note": "[compound 499]", "colistin MIC shift, Ab23 at (compd concentration)": 16}
{"test_system": "Acinetobacter baumannii (Ab23)", "assay": "MIC shift assay of antibiotics (broth microdilution)", "type": "cell-based", "conditions": "compound concentration 10 μM; fold shift of colistin MIC; nc = no changeover or no shift", "experimental": "as §1, §2, §3", "units": {"colistin MIC shift, Ab23 at (compd concentration)": "x"}}
{"smiles": "FC(F)(F)c1cc(-c2c[nH]c3cc(Cl)c(Cl)cc23)cc(C(F)(F)F)c1", "note": "[compound 435]", "colistin MIC shift, Ab23 at (compd concentration)": 16}
{"smiles": "Cc1cccc2c(NCCCN(C)C)nc(-c3cccc(Br)c3)nc12", "note": "[compound 455]", "colistin MIC shift, Ab23 at (compd concentration)": 4}
{"smiles": "Cc1cccc2c(NCCCN(C)C)nc(-c3ccc(Cl)c(Cl)c3)nc12", "note": "[compound 458]", "colistin MIC shift, Ab23 at (compd concentration)": 16}
{"smiles": "Cc1cccc2c(NCCCN3CCOCC3)nc(-c3cc(Br)cc(C(F)(F)F)c3)nc12", "note": "[compound 459]", "colistin MIC shift, Ab23 at (compd concentration)": 8}
{"smiles": "CCN(CC)CCCC(C)Nc1nc(-c2cccc(-c3ccccc3)c2)nc2c(Cl)cccc12", "note": "(stereo not shown) [compound 485]", "colistin MIC shift, Ab23 at (compd concentration)": 8}
{"smiles": "CCN(CC)CCCC(C)Nc1nc(-c2cc(N3CCOCC3)cc(C(F)(F)F)c2)nc2c(C)cccc12", "note": "(stereo not shown) [compound 500]", "colistin MIC shift, Ab23 at (compd concentration)": 4}
{"smiles": "Cc1cccc2c(NCCCN(C)C)nc(-c3cc(N4CCOCC4)cc(C(F)(F)F)c3)nc12", "note": "[compound 501]", "colistin MIC shift, Ab23 at (compd concentration)": 8}
